Legend:
Format in all cases: in vivo
monochoria (Mo) = assay: Test Example 1: herbicidal effects by paddy field soil treatment; conditions: 100 g of the active ingredient per 10 ares, 21st day after the application, index 0-5 of Table 47;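 further: grade of growth control; 5 = at least 90%; 4 = 70 to 90%; 3 = 50 to 70%; 2 = 30 to 50%; 1 = 10 to 30%; 0 = under 10%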
Description: (§1) (Test on Herbicidal Effects by Paddy Field Soil Treatment)
(§2) In a plastic pot (surface area: 100 cm^2) filled with paddy field soil, barnyardgrass (Ec), monochoria (Mo) and bulrush (Sc) were sown after puddling and leveling, and flooded to a water depth of 3 cm. […] The dose was 100 g of the active ingredient per 10 ares. The plants were then cultured in a green house, and the evaluation of the herbicidal effects was conducted on the 21st day after the application in accordance with the standards as identified in Table 47.

bulrush (Sc) = assay: as above; conditions: 100 g of the active ingredient per 10 ares, 21st day after the application, index 0-5 of Table 47;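 further: grade of growth control; 5 = at least 90%; 4 = 70 to 90%; 3 = 50 to 70%; 2 = 30 to 50%; 1 = 10 to 30%; 0 = under 10%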
Description: as §1, §2

barnyardgrass (Ec) [1] = assay: as above; conditions: 100 g of the active ingredient per 10 ares, 21st day after the application, index 0-5 of Table 47
Description: as §1, §2

[2] = test system: common lambsquarters (Ch); assay: Test Example 3: herbicidal effects by upland field foliage treatment; parameters: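 grade of growth control; 5 = at least 90%; 4 = 70 to 90%; 3 = 50 to 70%; 2 = 30 to 50%; 1 = 10 to 30%; 0 = under 10%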
Description: (§3) (Test on Herbicidal Effects by Upland Field Foliage Treatment)
(§4) In a plastic pot (surface area: 120 cm^2) filled with sand, barnyardgrass (Ec), Diaitaria ciliaris (Di), pale smartweed (Po), slender amaranth (Am), common lambsquarters (Ch) and rice flatsedge (Ci) were sown and covered with soil and were cultured in a green house for 2 weeks. […] The plants were then cultured in the green house, and the evaluation of the herbicidal effects was conducted on the 14th day after the treatment in accordance with the standards as identified in Table 47. Symbol—represents “not tested”.

rice flatsedge (Ci) [3] = assay: as above; parameters: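 grade of growth control; 5 = at least 90%; 4 = 70 to 90%; 3 = 50 to 70%; 2 = 30 to 50%; 1 = 10 to 30%; 0 = under 10%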
Description: as §3, §4

Diaitaria ciliaris (Di) = assay: as above; parameters: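 grade of growth control; 5 = at least 90%; 4 = 70 to 90%; 3 = 50 to 70%; 2 = 30 to 50%; 1 = 10 to 30%; 0 = under 10%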
Description: as §3, §4

slender amaranth (Am) [4] = assay: as above; parameters: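 grade of growth control; 5 = at least 90%; 4 = 70 to 90%; 3 = 50 to 70%; 2 = 30 to 50%; 1 = 10 to 30%; 0 = under 10%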
Description: as §3, §4

pale smartweed (Po) [5] = assay: as above; parameters: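 grade of growth control; 5 = at least 90%; 4 = 70 to 90%; 3 = 50 to 70%; 2 = 30 to 50%; 1 = 10 to 30%; 0 = under 10%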
Description: as §3, §4

barnyardgrass (Ec) [6] = assay: as above; parameters: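 grade of growth control; 5 = at least 90%; 4 = 70 to 90%; 3 = 50 to 70%; 2 = 30 to 50%; 1 = 10 to 30%; 0 = under 10%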
Description: as §3, §4

[7] = test system: common lambsquarters (Ch); assay: Test Example 2: herbicidal effects by upland field soil treatment; conditions: 100 g of the active ingredient per 10 ares;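 further: grade of growth control; 5 = at least 90%; 4 = 70 to 90%; 3 = 50 to 70%; 2 = 30 to 50%; 1 = 10 to 30%; 0 = under 10%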
Text: (§5) (Test on Herbicidal Effects by Upland Field Soil Treatment)

rice flatsedge (Ci) [8] = assay: as above; conditions: 100 g of the active ingredient per 10 ares
Text: as §5

slender amaranth (Am) [9] = assay: as above; conditions: 100 g of the active ingredient per 10 ares
Text: as §5

pale smartweed (Po) [10] = assay: as above; conditions: 100 g of the active ingredient per 10 ares
Text: as §5

barnyardgrass (Ec) [11] = assay: as above; conditions: 100 g of the active ingredient per 10 ares
Text: as §5

Digitaria ciliaris (Di) = assay: as above; conditions: 100 g of the active ingredient per 10 ares;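 further: grade of growth control; 5 = at least 90%; 4 = 70 to 90%; 3 = 50 to 70%; 2 = 30 to 50%; 1 = 10 to 30%; 0 = under 10%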
Text: as §5

[12] = 100 g of the active ingredient per 10 ares, evaluated on the 14th day after treatment
[13] = 21st day after the application, index 0-5 of Table 47
[14] = evaluated on the 21st day after application
[15] = 100 g active ingredient per 10 ares, evaluated 14th day after treatment

| Compound | Herbicidal effects Mo (monochoria (Mo)) | Herbicidal effects Sc (bulrush (Sc)) | Herbicidal effects Ec (barnyardgrass (Ec) [1]) | Herbicidal effects Ch [7, 13] | Herbicidal effects Ci (rice flatsedge (Ci) [8]; [13]) | Herbicidal effects Am (slender amaranth (Am) [9]; [13]) | Herbicidal effects Po (pale smartweed (Po) [10]; [13]) | Herbicidal effects Ec (barnyardgrass (Ec) [11]; [13]) | Herbicidal effects Di (Digitaria ciliaris (Di); [13]) | Herbicidal effects Ch [7, 14] | Herbicidal effects Ci (rice flatsedge (Ci) [8]; [14]) | Herbicidal effects Am (slender amaranth (Am) [9]; [14]) | Herbicidal effects Di (Digitaria ciliaris (Di); [14]) | Herbicidal effects Po (pale smartweed (Po) [10]; [14]) | Herbicidal effects Ec (barnyardgrass (Ec) [11]; [14]) | other results |
| --- | --- | --- | --- | --- | --- | --- | --- | --- | --- | --- | --- | --- | --- | --- | --- | --- |
| COc1cc(-c2ccc(C(F)(F)F)n(C)c2=O)ccc1Cl [1-108] | 5 | 5 | 5 | 5 | 5 | 5 | 5 | 5 | – | – | – | – | – | – | – | Herbicidal effects Ch [2, 12]: 5; Herbicidal effects Ci (rice flatsedge (Ci) [3]; [12]): 5; Herbicidal effects Di (Diaitaria ciliaris (Di); [12]): 5; Herbicidal effects Am (slender amaranth (Am) [4]; [12]): 5; Herbicidal effects Po (pale smartweed (Po) [5]; [12]): 5; Herbicidal effects Ec (barnyardgrass (Ec) [6]; [12]): 5 |
| CCCCCCOC(=O)COc1cc(-c2ccc(C(F)(F)F)n(C)c2=O)c(F)cc1Cl [1-149] | 5 | 5 | 5 | 5 | 5 | 5 | 5 | 5 | 5 | – | – | – | – | – | – | Herbicidal effects Ch [2, 12]: 5; Herbicidal effects Ci (rice flatsedge (Ci) [3]; [12]): 5; Herbicidal effects Di (Diaitaria ciliaris (Di); [12]): 5; Herbicidal effects Am (slender amaranth (Am) [4]; [12]): 5; Herbicidal effects Po (pale smartweed (Po) [5]; [12]): 5; Herbicidal effects Ec (barnyardgrass (Ec) [6]; [12]): 5 |
| Cn1c(C(F)(F)F)ccc(-c2ccc(Cl)c(Cl)c2)c1=O [Compound 1-185] | – | – | – | – | – | – | – | – | – | 5 | 5 | 5 | 5 | 4 | 5 | – |
| C=C(C)CN1C(=O)COc2cc(F)c(-c3ccc(C(F)(F)F)n(C)c3=O)cc21 [Compound 2-11] | 5 | 5 | 5 | – | – | – | – | – | – | 5 | 5 | 5 | 5 | 5 | 5 | Herbicidal effects Ch [2, 15]: 5; Herbicidal effects Ci (rice flatsedge (Ci) [3]; [15]): 5; Herbicidal effects Di (Diaitaria ciliaris (Di); [15]): 5; Herbicidal effects Am (slender amaranth (Am) [4]; [15]): 5; Herbicidal effects Po (pale smartweed (Po) [5]; [15]): 5; Herbicidal effects Ec (barnyardgrass (Ec) [6]; [15]): 5 |
| Cn1c(C(F)(F)F)ccc(-c2ccc(Cl)cc2)c1=O [Compound No. 1-1] | 5 | 5 | 5 | 5 | 5 | 5 | 5 | 5 | 5 | – | – | – | – | – | – | – |
| CC(C)Oc1cc(-c2ccc(C(F)(F)F)n(C)c2=O)c(Cl)cc1Cl [1-29] | 5 | 5 | 5 | 5 | 5 | 5 | 5 | 5 | 5 | – | – | – | – | – | – | Herbicidal effects Ch [2, 12]: 5; Herbicidal effects Ci (rice flatsedge (Ci) [3]; [12]): 5; Herbicidal effects Di (Diaitaria ciliaris (Di); [12]): 5; Herbicidal effects Am (slender amaranth (Am) [4]; [12]): 5; Herbicidal effects Po (pale smartweed (Po) [5]; [12]): 5; Herbicidal effects Ec (barnyardgrass (Ec) [6]; [12]): 5 |
| C#CC(C)Oc1cc(-c2cc(C)c(C(F)(F)F)n(C)c2=O)c(F)cc1Cl (centres unmarked) [1-78] | 5 | 5 | 5 | 5 | 5 | 5 | 5 | 5 | 5 | – | – | – | – | – | – | Herbicidal effects Ch [2, 12]: 5; Herbicidal effects Ci (rice flatsedge (Ci) [3]; [12]): 5; Herbicidal effects Di (Diaitaria ciliaris (Di); [12]): 5; Herbicidal effects Am (slender amaranth (Am) [4]; [12]): 5; Herbicidal effects Po (pale smartweed (Po) [5]; [12]): 5; Herbicidal effects Ec (barnyardgrass (Ec) [6]; [12]): 5 |
| CCOCc1cc2c(-c3ccc(C(F)(F)F)n(C)c3=O)c(Cl)cc(Cl)c2o1 [Compound 4-30] | 5 | 5 | 5 | – | – | – | – | – | – | 5 | 5 | 5 | 5 | 5 | 5 | – |
| Cn1cc(-c2ccc(Cl)cc2F)c(=O)cc1C(F)(F)F [Compound 6-2] | – | – | – | – | – | – | – | – | – | 5 | 5 | 5 | 5 | 5 | 4 | Herbicidal effects Ch [2, 15]: 5; Herbicidal effects Ci (rice flatsedge (Ci) [3]; [15]): 5; Herbicidal effects Di (Diaitaria ciliaris (Di); [15]): 5; Herbicidal effects Am (slender amaranth (Am) [4]; [15]): 5; Herbicidal effects Po (pale smartweed (Po) [5]; [15]): 5; Herbicidal effects Ec (barnyardgrass (Ec) [6]; [15]): 4 |
| C#CCN1C(=O)CSc2cc(F)c(-c3ccc(C(F)(F)F)n(C)c3=O)cc21 [Compound 2-21] | 5 | 5 | 5 | – | – | – | – | – | – | 5 | 5 | 5 | 5 | 5 | 5 | – |
| CNS(=O)(=O)c1cc(-c2ccc(C(F)(F)F)n(C)c2=O)ccc1Cl [Compound 1-257] | 5 | 5 | 5 | – | – | – | – | – | – | 5 | 5 | 5 | 5 | 5 | 5 | – |
| COCc1cc2c(-c3ccc(C(F)(F)F)n(C)c3=O)c(Cl)cc(Cl)c2o1 [Compound 4-13] | 5 | 5 | 5 | – | – | – | – | – | – | 5 | 5 | 5 | 5 | 5 | 5 | – |
| Cn1c(C(F)(F)F)ccc(-c2cc(Cl)c(Cl)cc2Cl)c1=O [Compound 1-186] | 5 | 4 | 5 | – | – | – | – | – | – | 5 | 5 | 5 | 5 | 5 | 5 | – |
| Cn1c(C(F)(F)F)ccc(-c2cc3c(cc2Cl)OCC(=O)N3)c1=O [Compound 2-27] | 5 | 5 | 5 | – | – | – | – | – | – | 5 | 5 | 5 | 5 | 5 | 5 | – |
| Cc1ccc(-c2ccc(Cl)cc2)c(=O)[nH]1 [comparative agent, reference compound] | – | – | – | – | – | – | – | – | – | 0 | 0 | 0 | 0 | 0 | 0 | – |
| Cn1c(C(F)(F)F)ccc(-c2cc3c(cc2F)OCC(=O)N3CC=CCl)c1=O [Compound 2-14] | – | – | – | – | – | – | – | – | – | 5 | 5 | 5 | 5 | 5 | 5 | Herbicidal effects Ch [2, 15]: 5; Herbicidal effects Ci (rice flatsedge (Ci) [3]; [15]): 5; Herbicidal effects Di (Diaitaria ciliaris (Di); [15]): 5; Herbicidal effects Am (slender amaranth (Am) [4]; [15]): 5; Herbicidal effects Po (pale smartweed (Po) [5]; [15]): 5; Herbicidal effects Ec (barnyardgrass (Ec) [6]; [15]): 5 |
| C#CCSc1cc(-c2ccc(C(F)(F)F)n(C)c2=O)ccc1Cl [1-112] | 5 | 5 | 5 | 5 | 5 | 5 | 5 | 5 | 5 | – | – | – | – | – | – | – |
| Cn1c(C(F)(F)F)ccc(-c2cc(Sc3ncccn3)c(Cl)cc2Cl)c1=O [1-131] | 5 | 5 | 5 | 5 | 5 | 5 | 5 | 5 | 5 | – | – | – | – | – | – | – |
| CCCN1C(=O)COc2cc(F)c(-c3ccc(C(F)(F)F)n(C)c3=O)cc21 [Compound 2-10] | – | – | – | – | – | – | – | – | – | 5 | 5 | 5 | 5 | 5 | 5 | Herbicidal effects Ch [2, 15]: 5; Herbicidal effects Ci (rice flatsedge (Ci) [3]; [15]): 5; Herbicidal effects Di (Diaitaria ciliaris (Di); [15]): 5; Herbicidal effects Am (slender amaranth (Am) [4]; [15]): 5; Herbicidal effects Po (pale smartweed (Po) [5]; [15]): 5; Herbicidal effects Ec (barnyardgrass (Ec) [6]; [15]): 5 |
| CCCOC(C)c1cc2c(-c3ccc(C(F)(F)F)n(C)c3=O)c(F)cc(Cl)c2o1 (centres unmarked) [Compound 4-37] | – | – | – | – | – | – | – | – | – | 5 | 5 | 5 | 5 | 5 | 5 | Herbicidal effects Ch [2, 15]: 5; Herbicidal effects Ci (rice flatsedge (Ci) [3]; [15]): 5; Herbicidal effects Di (Diaitaria ciliaris (Di); [15]): 5; Herbicidal effects Am (slender amaranth (Am) [4]; [15]): 5; Herbicidal effects Po (pale smartweed (Po) [5]; [15]): 5; Herbicidal effects Ec (barnyardgrass (Ec) [6]; [15]): 5 |
| CNC(=O)COc1cc(-c2ccc(C(F)(F)F)n(C)c2=O)c(F)cc1Cl [Compound 1-209] | 5 | 5 | 5 | – | – | – | – | – | – | 5 | 5 | 5 | 4 | 5 | 4 | – |
| C#CCOc1cc(-c2c(C#N)cc(C(F)(F)F)n(C)c2=O)c(F)cc1Cl [Compound No. 11-6, 3-[2-fluoro-4-chloro-5-(2-propionyloxy)phenyl]-4-cyano-1-methyl-6-trifluoromethyl-2(1H)-pyridone] | 5 | 5 | 5 | – | – | – | – | – | – | 5 | 5 | 5 | 5 | 5 | 5 | – |
| Cn1c(C(F)(F)F)ccc(-c2cc(Oc3nc(Cl)cs3)c(Cl)cc2F)c1=O [1-103] | 5 | 5 | 5 | 5 | 5 | 5 | 5 | 4 | 5 | – | – | – | – | – | – | – |

Source: US6472348B1, “Pyridone derivatives and herbicides” (Kumiai Chemical Industry Co., Ltd., priority 1996, dated 2002)
